Results: ChEMBL document CHEMBL3046521, “Synthesis and antitumor activity of (4-hydroxyphenyl)[5-substituted alkyl/aryl)-2-thioxo-1,3,4-thiadiazol-3-yl]methanone and [(3,4-disubstituted)-1,3-thiazol-2ylidene]-4-hydroxybenzohydrazide” (2011)

Legend:
Assay type in all cases: functional
MCF7 = test: Cytotoxicity against Homo sapiens (human) MCF7 cells after 48 hr by sulforhodamine B assay; details: MCF7, 48 h
SF-539 = test: Cytotoxicity against Homo sapiens (human) SF539 cells after 48 hr by sulforhodamine B assay; details: SF-539, 48 h
CCRF-CEM = test: Cytotoxicity against Homo sapiens (human) CCRF-CEM cells after 48 hr by sulforhodamine B assay
PC-3 = test: Cytotoxicity against Homo sapiens (human) PC3 cells after 48 hr by sulforhodamine B assay; details: PC-3, 48 h
K562 = test: Cytotoxicity against Homo sapiens (human) K562 cells after 48 hr by sulforhodamine B assay; details: K562, 48 h
SF-295 = test: Cytotoxicity against Homo sapiens (human) SF295 cells after 48 hr by sulforhodamine B assay; details: SF-295, 48 h
LOX IMVI = test: Anticancer activity in Homo sapiens (human) LOXIMVI cells assessed as cell growth at 10^-5 M after 48 hr by SRB assay; details: read-out: Activity
MOLT-4 = test: Cytotoxicity against Homo sapiens (human) MOLT4 cells after 48 hr by sulforhodamine B assay; details: MOLT-4, 48 h
786-0 = test: Cytotoxicity against Homo sapiens (human) 786-0 cells after 48 hr by sulforhodamine B assay; details: 786-0, 48 h
U-251 = test: Cytotoxicity against Homo sapiens (human) U251 cells after 48 hr by sulforhodamine B assay; details: U-251, 48 h
OVCAR-5 = test: Cytotoxicity against Homo sapiens (human) OVCAR5 cells after 48 hr by sulforhodamine B assay; details: OVCAR-5, 48 h
Hs-578T = test: Cytotoxicity against Homo sapiens (human) Hs 578T cells after 48 hr by sulforhodamine B assay
NCI-H23 = test: Cytotoxicity against Homo sapiens (human) NCI-H23 cells after 48 hr by sulforhodamine B assay; details: NCI-H23, 48 h
HOP-92 = test: Cytotoxicity against Homo sapiens (human) HOP92 cells after 48 hr by sulforhodamine B assay; details: HOP-92, 48 h
T47D = test: Cytotoxicity against Homo sapiens (human) T47D cells after 48 hr by sulforhodamine B assay
ACHN = test: Cytotoxicity against Homo sapiens (human) ACHN cells after 48 hr by sulforhodamine B assay
RXF 393 = test: Cytotoxicity against Homo sapiens (human) RXF393 cells after 48 hr by sulforhodamine B assay; details: RXF 393, 48 h
IGROV-1 = test: Cytotoxicity against Homo sapiens (human) IGROV1 cells after 48 hr by sulforhodamine B assay; details: IGROV-1, 48 h
A549 = test: Cytotoxicity against Homo sapiens (human) A549 cells after 48 hr by sulforhodamine B assay; details: A549, 48 h
SF-268 = test: Cytotoxicity against Homo sapiens (human) SF268 cells after 48 hr by sulforhodamine B assay; details: SF-268, 48 h
HL-60(TB) = test: Cytotoxicity against Homo sapiens (human) HL-60(TB) cells after 48 hr by sulforhodamine B assay; details: HL-60, 48 h
SK-MEL-2 = test: Cytotoxicity against Homo sapiens (human) SK-MEL-2 cells after 48 hr by sulforhodamine B assay; details: SK-MEL-2, 48 h
UO-31 = test: Cytotoxicity against Homo sapiens (human) UO31 cells after 48 hr by sulforhodamine B assay; details: UO-31, 48 h
UACC-257 = test: Cytotoxicity against Homo sapiens (human) UACC257 cells after 48 hr by sulforhodamine B assay; details: UACC-257, 48 h
CAKI-1 = test: Cytotoxicity against Homo sapiens (human) Caki1 cells after 48 hr by sulforhodamine B assay; details: CAKI-1, 48 h
SNB-75 = test: Cytotoxicity against Homo sapiens (human) SNB75 cells after 48 hr by sulforhodamine B assay; details: SNB-75, 48 h
NCI-H322M = test: Cytotoxicity against Homo sapiens (human) NCI-H322M cells after 48 hr by sulforhodamine B assay
SNB-19 = test: Cytotoxicity against Homo sapiens (human) SNB19 cells after 48 hr by sulforhodamine B assay; details: SNB-19, 48 h
NCI-H522 = test: Cytotoxicity against Homo sapiens (human) NCI-H522 cells after 48 hr by sulforhodamine B assay; details: NCI-H522, 48 h

`COc1ccc(-c2cs/c(=N\NC(=O)c3ccc(O)cc3)n2-c2ccc(OC)cc2OC)cc1` was tested, and the GI50 (MCF7) was 3.72 µM, the LC50 (MCF7) was > 100 µM and the TGI (MCF7; read-out: pTGI (converted)) was 28.8 µM. The GI50 (SF-539) was 5.13 µM, the LC50 (SF-539) was 63.1 µM and the TGI (SF-539; read-out: pTGI (converted)) was 20.4 µM. The GI50 (CCRF-CEM) was 9.77 µM, the LC50 (CCRF-CEM) was > 100 µM and the TGI (CCRF-CEM; read-out: pTGI) was > 100 µM. The GI50 (PC-3) was 3.39 µM, the LC50 (PC-3) was > 100 µM and the TGI (PC-3; read-out: pTGI (converted)) was > 100 µM. For the same compound, the GI50 (K562) was 2.19 µM, the LC50 (K562) was > 100 µM and the TGI (K562; read-out: pTGI (converted)) was > 100 µM. For the same compound, the GI50 (SF-295) was 2.82 µM, the LC50 (SF-295) was > 100 µM and the TGI (SF-295; read-out: pTGI (converted)) was 9.77 µM. The growth at 10 µM (LOX IMVI) was 58.3%, the GI50 (MOLT-4) was 1.2 µM and the LC50 (MOLT-4) was > 100 µM. The TGI (MOLT-4; read-out: pTGI (converted)) was 23.4 µM, the GI50 (786-0) was 4.07 µM and the LC50 (786-0) was > 100 µM. The TGI (786-0; read-out: pTGI (converted)) was 26.3 µM, the GI50 (U-251) was 4.47 µM and the LC50 (U-251) was 93.3 µM. For the same compound, the TGI (U-251; read-out: pTGI (converted)) was 89.1 µM, the GI50 (OVCAR-5) was 6.92 µM and the LC50 (OVCAR-5) was > 100 µM. For the same compound, the TGI (OVCAR-5; read-out: pTGI (converted)) was 38 µM, the GI50 (Hs-578T) was 6.92 µM and the LC50 (Hs-578T) was > 100 µM. For the same compound, the TGI (Hs-578T; read-out: pTGI (converted)) was 53.7 µM, the GI50 (NCI-H23) was 11 µM and the LC50 (NCI-H23) was > 100 µM. For the same compound, the TGI (NCI-H23; read-out: pTGI (converted)) was > 100 µM, the GI50 (HOP-92) was 3.31 µM and the LC50 (HOP-92) was > 100 µM. The TGI (HOP-92; read-out: pTGI (converted)) was 37.2 µM, the GI50 (T47D) was 5.13 µM and the LC50 (T47D) was > 100 µM. For the same compound, the TGI (T47D; read-out: pTGI (converted)) was 79.4 µM, the GI50 (ACHN) was 4.79 µM and the LC50 (ACHN) was > 100 µM. The TGI (ACHN; read-out: pTGI (converted)) was > 100 µM, the GI50 (RXF 393) was 5.37 µM and the LC50 (RXF 393) was > 100 µM. The TGI (RXF 393; read-out: pTGI (converted)) was > 100 µM, the GI50 (IGROV-1) was 7.94 µM and the LC50 (IGROV-1) was > 100 µM. The TGI (IGROV-1; read-out: pTGI (converted)) was > 100 µM, the GI50 (A549) was 6.03 µM and the LC50 (A549) was > 100 µM. The TGI (A549; read-out: pTGI (converted)) was > 100 µM, the GI50 (SF-268) was 5.75 µM and the LC50 (SF-268) was > 100 µM. The TGI (SF-268; read-out: pTGI (converted)) was 60.3 µM, the GI50 (HL-60(TB)) was 3.02 µM and the CC50 (HL-60(TB); read-out: pLC50 (the source's name) (converted)) was > 100 µM. For the same compound, the TGI (HL-60(TB); read-out: pTGI (converted)) was 38 µM, the GI50 (SK-MEL-2) was 4.9 µM and the LC50 (SK-MEL-2) was > 100 µM. For the same compound, the TGI (SK-MEL-2; read-out: pTGI (converted)) was 72.4 µM, the GI50 (UO-31) was 4.68 µM and the LC50 (UO-31) was > 100 µM. The TGI (UO-31; read-out: pTGI) was > 100 µM, the GI50 (UACC-257) was 15.1 µM and the LC50 (UACC-257) was > 100 µM. For the same compound, the TGI (UACC-257; read-out: pTGI (converted)) was > 100 µM, the GI50 (CAKI-1) was 3.31 µM and the LC50 (CAKI-1) was > 100 µM. The TGI (CAKI-1; read-out: pTGI (converted)) was 52.5 µM, the GI50 (SNB-75) was 22.9 µM and the LC50 (SNB-75) was > 100 µM. For the same compound, the TGI (SNB-75; read-out: pTGI (converted)) was > 100 µM, the GI50 (NCI-H322M) was 22.9 µM and the LC50 (NCI-H322M) was > 100 µM. For the same compound, the TGI (NCI-H322M; read-out: pTGI (converted)) was > 100 µM, the GI50 (SNB-19) was 10.7 µM and the LC50 (SNB-19) was > 100 µM. The TGI (SNB-19; read-out: pTGI (converted)) was > 100 µM, the GI50 (NCI-H522) was 2.57 µM and the LC50 (NCI-H522) was > 100 µM. It also gave a TGI (NCI-H522; read-out: pTGI (converted)) of 20 µM.
